How the values were obtained:
rats = details: single intraperitoneal administration of reserpine in rats; Non-patent Reference 13; cited from earlier work
Sprague-Dawley rats [1] = test: Skin pain sensation threshold value (von Frey filaments) after repeated administration of reserpine; type: in vivo, rat; details: for time after reserpine final administration until which skin pain sensation threshold value was statistically significantly low vs solvent group: reserpine 1 mg/kg s.c. once a day for 3 days
Method: Measurement of muscle pressure pain threshold value was carried out in accordance with the method of Schafers et al. (Schafers M. et al., Pain, 104, 579-588, 2003). A pressure stimulus of gradually increasing to 250 g at the maximum was added to the rat right hind leg gastrocnemius muscle. […] The measurement was carried out 3 times at each point of time of the measurement, and the average was used as the measurement value. Measurement of the skin pain sensation threshold value was carried out in accordance with the method of Chaplan et al. (Chaplan et al., J. Neurosci. Methods, 53, 55-63, 1994). This was measured using a series of von Frey filaments having different diameters which may add a constant pressure. […] The von Frey filament was applied using the up and down method. That is, by firstly applying a filament of middle diameter, a filament having one rank smaller diameter was applied when the withdrawal reaction was observed or a filament having one rank larger diameter was applied when the withdrawal reaction was not observed. The skin pain sensation threshold value at each point of time of the measurement was calculated as a hind paw withdrawal reaction threshold value (g) using the calculation formula reported by Chaplan et al. (Chaplan et al., described above). Influences of reserpine upon the muscle pressure pain threshold value and skin pain sensation threshold value were examined by the following protocol. A total of 24 animals for each of male and female rats were used. After measuring muscle pressure pain threshold value and skin pain sensation threshold value before the reserpine treatment (base line), they were divided based on the reserpine administration doses into a solvent (0.5% acetic acid aqueous solution) group, a reserpine 0.1 mg/kg group, a 0.3 mg/kg group and a 1 mg/kg group (the number of animals per one group was 6). The solvent or reserpine was subcutaneously administered on the back of the rats of each group once a day for 3 days. All of the administration volume of the solvent or reserpine was set to 1 ml per 1 kg body weight of each animal. After final administration of the solvent or reserpine, the muscle pressure pain threshold value and skin pain sensation threshold value of each rat were measured 1, 3, 5, 7, 10, 14 and 21 days thereafter.
(§1) All of the measured values were expressed as average value±standard error. Statistical significance test of the measured values between the reserpine administration groups and the solvent administration group at each point of time was carried out by a two-way analysis of variance and the Bonferroni method. Probability value (P) of less than 5% was judged as statistically significant (P<0.05 was expressed as * in the graphs).

Sprague-Dawley rats [2] = test: Forced swimming test (immobility time) after repeated administration of reserpine; type: in vivo, rat; details: reserpine 1 mg/kg s.c. once a day for 3 days
Method: Male Sprague-Dawley rats (7 weeks old, Japan SLC, Hamamatsu, Japan) were used as the animal. The forced swimming test was carried out by modifying the method of Porsolt et al. (1977) in the following manner. A soft wire equipped with a magnet (1 mm in diameter, 3 mm in length) was attached to both forelimbs of each animal, and the animal was allowed to swim in a cylindrical plastic water bath (20 cm in diameter, 45 cm in height) filled with water (24±1° C.) to a depth of 30 cm. In this test, the immobility time of each animal was measured using a forced swimming automatic measuring device (MicroAct Scratching Test version 1.06; Neuroscience, Tokyo, Japan) which detects movement of the forelimbs equipped with the magnet, through a coil around the cylinder.
Influence of reserpine upon the immobility time in the forced swimming test was examined in accordance with the following protocol. […] All of the measured values were expressed as average value±standard error. Statistical difference of the measured values between the reserpine administration groups and the vehicle administration group in each test schedule was carried out by the Student's t-test. Probability value (P) of less than 5% was judged as statistically significant (P<0.05 was expressed as * in the graphs).

Sprague-Dawley rats [3] = test: Skin pain sensation threshold value after reserpine single administration; type: in vivo, rat; details: reserpine 3 mg/kg single s.c.
Method: Measurement of the skin pain sensation threshold value was carried out in the same manner as in Example 1. That is, this was measured using a series of von Frey filaments having different diameter which can add a constant pressure. […] The von Frey filament was applied using the up and down method. That is, by firstly applying a filament of about middle diameter, a filament having one rank smaller diameter was applied when the withdrawal reaction was observed or a filament having one rank larger diameter was applied when the withdrawal reaction was not observed. The skin pain sensation threshold value at each point of time was calculated as a hind paw withdrawal reaction threshold value (g).
Influences of the reserpine single administration upon the muscle pressure pain threshold value, skin pain sensation threshold value, cold sensitivity and heat sensitivity were examined in accordance with the following protocol. A total of 12 male rats were used. The muscle pressure pain threshold value, skin pain sensation threshold value, cold sensitivity and heat sensitivity before the reserpine treatment (base lines) were measured and then they were divided into a solvent (0.5% acetic acid aqueous solution) group and a reserpine (3 mg/kg) group (the number of animals per group was 6). […] The muscle pressure pain threshold value, skin pain sensation threshold value, cold sensitivity and heat sensitivity of each rat were measured at the points of measurement time of acute phase after administration of the solvent or reserpine (2, 4, 8 and 24 hours) and chronic phase (2, 3, 5, 7, 10, 14 and 21 days).
as §1, with “by the” for “by a”

## COC(=O)[C@H]1[C@H]2C[C@@H]3c4[nH]c5cc(OC)ccc5c4CCN3C[C@H]2C[C@@H](OC(=O)c2cc(OC)c(OC)c(OC)c2)[C@@H]1OC [reserpine]
rats
  sensitivity to thermal stimulation: causes hypersensitivity to thermal stimulation
  time within which hypersensitivity to thermal stimulation disappears: ≤ 24 h
Sprague-Dawley rats [1]; female rats
  time after reserpine final administration until which skin pain sensation threshold value was statistically significantly low vs solvent group: 14 days
Sprague-Dawley rats [1]; male and female rats, reserpine 0.1, 0.3, 1 mg/kg s.c. once a day for 3 days, two-way analysis of variance vs solvent
  skin pain sensation threshold value: significantly reduced
Sprague-Dawley rats [1]; male rats
  time after reserpine final administration until which skin pain sensation threshold value was statistically significantly low vs solvent group: 21 days
Sprague-Dawley rats [1]; reserpine 1 mg/kg group, s.c. once a day for 3 days
  skin pain sensation threshold value: markedly reduced
Sprague-Dawley rats [2]; after 3, 5, 7 and 14 days of the final administration (P=0.0007, P=0.004, P<0.0001, P=0.0008)
  immobility time in forced swimming test vs vehicle administration group: significant increase
Sprague-Dawley rats [2]; after 1 day of the final administration (P=0.625, Student's t-test)
  immobility time in forced swimming test vs vehicle administration group: Significant increase in the immobility time by the reserpine administration was not found
Sprague-Dawley rats [3]
  time after administration at which transient acute-phase tactile allodynia recovers: 4 h
Sprague-Dawley rats [3]; 2, 3, 5, 7, 10, 14 and 21 days after administration
  skin pain sensation threshold value: significantly reduced
Sprague-Dawley rats [3]; after 2 hours
  skin pain sensation threshold value: significantly reduced
